pIC50: −log10 of the molar value.
Key:
[1] = test system: E3 ubiquitylation reaction containing E1, E2 (UbcH5c) and E3; experiment: E3 ligase inhibition assay using 5′-IAF-UBA1 detection and anti-ubiquitin immunoblot; assay type: biochemical, human; conditions: pre-incubated with various concentrations for 30 minutes at room temperature before adding ubiquitin and ATP; FIGS. 9A-D
Protocol: E3 ligase reactions contained 10 nM GST-Praja1, 500 nM 6× His-SUMO-CARP2 or 500 nM 6× His-SUMO-MuRF1 as E3s, 50 nM E1, 150 nM UbcH5c (E2), 500 ng Ubiquitin, 2 mM ATP, 50 mM Tris-HCl pH8.0, 5 mM MgCl2, 0.1 mM DTT. For measuring SCF^Atrogin-1 E3 ligase activity, the reaction was assembled essentially as described above except that the E3 ligase contained 6× His-SUMO-Atrogin-1, Cullin-1 (“Cul1”), Roc-1 (“Rbx-1 ”) and 6× His-Skp1 (250 nM each). In order to obtain large amounts of the Cul1-Rbx1 complex for the SCF complex, we used a procedure to overexpress the Cul1-Rbx1 complex in E. coli. Zheng, et al., Nature, 416(6882):703-9 (2002). The Cull gene was split into two halves (residues 1-410 and residues 411-776) and co-expressed with GST-tagged Rbx1 as three different polypeptide chains. A PCR product encoding Skp1 was generated using the primers 5′-[…]-3′ (SEQ ID NO:28) and 5′-[…]-3′ (SEQ ID NO:29) and human Skp1 cDNA as the template. […]
For inhibition assays, reactions containing E1, E2, and E3 were pre-incubated with various concentrations of NEM and ubistatin A for 30 minutes at room temperature before initiating the reaction by adding ubiquitin and ATP. […] The wells were washed with 1× PBS and readings were taken using a fluorescence plate reader with excitation and emission wavelengths of 485 nm and 535nm, respectively. […]

[2] = biological target: T1, E1, E2 and E3 coupled enzyme reaction (GST-E1/His6-UbcH5c/6× His-SUMO-CARP2 ligase) (Homo sapiens, UniProt P22314+P61077+Q8WZ73); experiment: E3 ligase assay (autoubiquitylation) on 6× His-SUMO-UBA2 coated plates, anti-ubiquitin antibody/FITC fluorescence detection; assay type: biochemical; conditions: enzymes pre-incubated with compound 30 minutes at room temperature; reaction 60 minutes at 37° C.; 500 nM 6× His SUMO-CARP2; triplicate; FIG. 6A
T1 construct: fused on or other part: GST on E1; His6 on UbcH5c; 6x His-SUMO on CARP2; The plate is coated with 6x His-SUMO-UBA2 (yeast Rad23 residues 351-398) as capture reagent
Protocol: Medium binding plates (Costar, USA) were coated with 100 μl of 0.1 mg/ml solution of 6× His-SUMO-UBA2 overnight at 4° C. The plates were blocked with 200 μl of 3% BSA in 1× phosphate buffered saline (1× PBS, pH 7.4) for 3 hours at 4° C. and washed with 1× PBS three times. E3 reactions were carried out as follows. For IC50 experiments, various concentrations of NEM, iodoacetamide, and ubistatin A were added to individual wells in triplicate. Controls contained 5 μl of 10% DMSO or 50 mM NEM. The compounds were supplemented with 20 μl of enzyme mixture containing GST-E1 (10 nM)/His6-UbcH5c (100 nM), 6× His SUMO-CARP2 (500 nM) prepared in assay buffer (50 mM Tris-HCl, pH8.0, 2 mM MgCl2, 0.1 mM DTT) and incubated at room temperature for 30 minutes. A pFastBac-GST-E1 vector was expressed and purified from insect cells according to published methods. Beaudenon and Huibregtse, Methods Enzymol, 398: 3-8 9 (2005). A PCR product encoding UbcH5c was generated using the primers 5′-[…]-3′ (SEQ ID NO:24) and 5′-[…]-3′ (SEQ ID NO:25) and human UbcH5c cDNA as the template. The PCR fragment was digested with BsaI and BamHI, and then ligated into pET24D (Novagen) generating 6× His-UbcH5c. […] Plates were washed six times with 1× PBS and readings were taken using the fluorescence plate reader with excitation and emission wavelengths of 485 nm and 535 nm, respectively.

T1 sequence (P22314 2-1058): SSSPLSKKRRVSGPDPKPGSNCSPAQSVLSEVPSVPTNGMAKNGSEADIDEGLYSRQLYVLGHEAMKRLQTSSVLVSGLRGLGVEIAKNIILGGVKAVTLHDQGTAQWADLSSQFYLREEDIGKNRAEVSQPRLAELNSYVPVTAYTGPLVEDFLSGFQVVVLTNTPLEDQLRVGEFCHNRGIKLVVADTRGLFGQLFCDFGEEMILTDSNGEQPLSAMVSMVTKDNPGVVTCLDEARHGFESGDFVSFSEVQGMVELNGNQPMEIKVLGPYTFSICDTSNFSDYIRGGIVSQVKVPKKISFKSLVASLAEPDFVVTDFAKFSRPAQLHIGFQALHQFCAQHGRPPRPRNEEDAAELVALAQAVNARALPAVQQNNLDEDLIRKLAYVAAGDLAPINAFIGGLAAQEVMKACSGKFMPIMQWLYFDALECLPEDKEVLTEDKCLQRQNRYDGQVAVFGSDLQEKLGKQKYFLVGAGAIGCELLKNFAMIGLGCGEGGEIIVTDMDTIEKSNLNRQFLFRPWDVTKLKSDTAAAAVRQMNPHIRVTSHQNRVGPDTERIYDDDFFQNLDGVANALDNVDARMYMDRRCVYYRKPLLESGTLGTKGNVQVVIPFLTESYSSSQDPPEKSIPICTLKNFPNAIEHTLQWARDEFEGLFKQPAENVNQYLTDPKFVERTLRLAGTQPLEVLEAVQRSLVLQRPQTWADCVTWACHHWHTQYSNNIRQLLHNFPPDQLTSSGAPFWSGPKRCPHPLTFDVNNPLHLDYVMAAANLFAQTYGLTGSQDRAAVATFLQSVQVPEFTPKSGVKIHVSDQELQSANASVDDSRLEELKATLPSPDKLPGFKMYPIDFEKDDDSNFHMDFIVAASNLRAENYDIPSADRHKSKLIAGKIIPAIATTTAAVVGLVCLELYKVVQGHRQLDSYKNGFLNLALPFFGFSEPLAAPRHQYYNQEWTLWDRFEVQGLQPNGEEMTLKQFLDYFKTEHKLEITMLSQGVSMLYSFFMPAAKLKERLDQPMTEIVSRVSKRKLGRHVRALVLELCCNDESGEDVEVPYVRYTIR
T1 sequence (P61077 whole entry, the tested form may be a part): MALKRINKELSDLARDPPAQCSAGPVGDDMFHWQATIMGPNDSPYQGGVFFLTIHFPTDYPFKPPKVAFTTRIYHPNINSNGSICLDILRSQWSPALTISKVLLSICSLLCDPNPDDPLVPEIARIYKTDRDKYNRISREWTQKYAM
T1 sequence (Q8WZ73 whole entry, the tested form may be a part): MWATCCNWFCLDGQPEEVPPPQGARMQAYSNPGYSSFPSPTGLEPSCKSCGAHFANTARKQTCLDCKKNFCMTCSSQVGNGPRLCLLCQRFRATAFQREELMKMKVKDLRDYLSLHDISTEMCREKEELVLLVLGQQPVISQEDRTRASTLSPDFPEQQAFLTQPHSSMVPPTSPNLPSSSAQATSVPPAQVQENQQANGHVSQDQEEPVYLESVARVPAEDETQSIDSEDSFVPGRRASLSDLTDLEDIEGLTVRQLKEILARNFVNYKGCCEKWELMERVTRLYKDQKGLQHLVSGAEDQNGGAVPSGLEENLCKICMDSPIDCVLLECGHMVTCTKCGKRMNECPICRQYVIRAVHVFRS

SMILES	inhibition of the E3 ubiquitylation assay [1]	pIC50 [2]
CCN1C(=O)C=CC1=O [NEM]	inhibited	4.47
O=C(Nc1ccc(/C=C/c2ccc(NC(=O)c3cc(S(=O)(=O)O)c4cccnc4c3O)cc2S(=O)(=O)O)c(S(=O)(=O)O)c1)c1cc(S(=O)(=O)O)c2cccnc2c1O [ubistatinA]	inhibited	6.38

— patent publication US20100021941A1, “METHODS OF IDENTIFYING MODULATORS OF UBIQUITIN LIGASES” (PROGENRA, INCORPORATED, priority 2008, published 2010)
